Our source for the IC50 values is US9133134B2, “Inhibitors of bruton's tyrosine kinase” (Pharmacyclics, Inc., priority 2012, dated 2015).

pIC50: −log10 of the molar value.

For the test, the target named is human BTK (Homo sapiens (Human), UniProt Q06187). Briefly: Btk enzymatic kinase assay (electrophoretic mobility shift assay). It counts as biochemical. The conditions noted are these: recombinant full-length human BTK 1 nM, ATP 16 μM, peptide substrate 1 μM, one hour incubation. On the procedure: Kinase activity is measured in vitro using electrophoretic mobility shift assay. The kinase reactions are assembled in a total volume of 25 μL in 384 well plates. […] The reaction is incubated for one hour and is quenched by the addition of 45 μL of termination buffer (100 mM HEPES, pH7.5, 0.01% Triton X-100, 30 mM EDTA). The terminated reactions are analyzed using 12 channel LabChip® 3000 microfluidic detection instrument (Caliper Life Sciences). […] Change in the relative fluorescence intensity of the substrate and product peaks is the parameter measured, reflecting enzyme activity. In the presence of an inhibitor, the ratio between product and substrate is altered: the signal of the product decreases, while the signal of the substrate increases.
Activity in each sample is determined as the product to sum ratio (PSR): P/(S+P), where P is the peak height of the product peptide and S is the peak height of the substrate peptide. For each compound, enzyme activity is measured at various concentrations (12 concentrations of compound spaced by 3× dilution intervals). […] Percent inhibition (Pinh) is determined using following equation: […]
The IC50 values of inhibitors are determined by 4 parameter sigmoidal dose-response model fitting of the inhibition curves (Pinh versus inhibitor concentration) using XLfit 4 software.

The term pIC50 denotes the negative decadic logarithm of the IC50, by convention in mol/L.

human BTK, sequence (Q06187 whole entry): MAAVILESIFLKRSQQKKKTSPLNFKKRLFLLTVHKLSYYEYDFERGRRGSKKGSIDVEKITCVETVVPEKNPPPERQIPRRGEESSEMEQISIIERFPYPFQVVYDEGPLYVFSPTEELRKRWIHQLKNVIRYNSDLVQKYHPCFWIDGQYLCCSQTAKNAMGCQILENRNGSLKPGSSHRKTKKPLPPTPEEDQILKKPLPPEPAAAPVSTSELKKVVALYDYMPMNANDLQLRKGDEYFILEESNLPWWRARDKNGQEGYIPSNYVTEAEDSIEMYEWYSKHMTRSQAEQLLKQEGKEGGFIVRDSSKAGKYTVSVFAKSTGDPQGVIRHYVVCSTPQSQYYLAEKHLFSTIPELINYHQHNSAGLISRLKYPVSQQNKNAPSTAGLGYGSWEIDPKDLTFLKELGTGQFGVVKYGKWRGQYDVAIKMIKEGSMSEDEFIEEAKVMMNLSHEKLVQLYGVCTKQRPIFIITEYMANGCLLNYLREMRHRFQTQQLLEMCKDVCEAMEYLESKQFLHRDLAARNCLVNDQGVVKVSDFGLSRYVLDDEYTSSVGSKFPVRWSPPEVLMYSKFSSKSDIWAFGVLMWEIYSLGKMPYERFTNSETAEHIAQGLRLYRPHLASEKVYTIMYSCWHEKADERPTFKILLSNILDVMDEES

On to `COCCOc1ccc(Nc2ncc(F)c(Nc3cccc(NC(=O)C(O)CO)c3)n2)cc1` (stereo not shown) [Compound 4, N-(3-(5-fluoro-2-(4-(2-methoxyethoxy)phenylamino)pyrimidin-4-ylamino)phenyl)-2,3-dihydroxypropanamide], for which the pIC50 is more than 6.30.
